Data published in the supplement of paper PMC10307832.

Experiments:
Assay in all cases: relative viability (nuclei count vs DMSO), 5 days (fraction); higher = more cells survive
[1] = test system: CAL-12T
Outline: (§1)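 Relative viability was taken as the ratio of nuclei in treated wells to nuclei in vehicle wells. Lung cancer cell lines in 1536-well plates received compounds by pin tool one day after seeding, either one drug alone or a fixed anchor-drug dose plus five library-drug doses (not always all listed) in √10 steps. Nuclei were counted on 4× images after 5 days of treatment, and values are medians of duplicate plates.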

[2] = test system: COR-L 105
Outline: as §1

[3] = test system: H3255
Outline: as §1

[4] = test system: HARA
Outline: as §1

[5] = test system: HCC-15
Outline: as §1

[6] = test system: HCC-366
Outline: as §1

[7] = test system: LC-2-ad
Outline: as §1

[8] = test system: LU99A
Outline: as §1

[9] = test system: NCI-H1395
Outline: as §1

[10] = test system: NCI-H1563
Outline: as §1

[11] = test system: NCI-H1666
Outline: as §1

COCC1(CO)C(=O)C2CCN1CC2 (stereo unspecified) [PRIMA-1MET] + Cc1nc(NC(=O)N2CCC[C@H]2C(N)=O)sc1-c1ccnc(C(C)(C)C(F)(F)F)c1 [Alpelisib] (partner 2 µM)
relative viability ([1]; first compound 0.2 µM): 1.19 | relative viability ([1]; first compound 0.6325 µM): 1.29 | relative viability ([1]; first compound 2 µM): 1.08 | relative viability ([1]; first compound 6.325 µM): 1.42 | relative viability ([1]; first compound 20 µM): 0.264 | relative viability ([2]; first compound 0.2 µM): 1.11 | relative viability ([2]; first compound 0.6325 µM): 0.997 | relative viability ([2]; first compound 2 µM): 1.14 | relative viability ([2]; first compound 6.325 µM): 0.852 | relative viability ([2]; first compound 20 µM): 0.176 | relative viability ([3]; first compound 0.2 µM): 0.845 | relative viability ([3]; first compound 0.6325 µM): 0.547 | relative viability ([3]; first compound 2 µM): 0.574 | relative viability ([3]; first compound 6.325 µM): 0.793 | relative viability ([3]; first compound 20 µM): 0.666 | relative viability ([4]; first compound 0.2 µM): 0.97 | relative viability ([4]; first compound 0.6325 µM): 0.603 | relative viability ([4]; first compound 6.325 µM): 0.836 | relative viability ([4]; first compound 20 µM): 0.954 | relative viability ([5]; first compound 0.2 µM): 1.01 | relative viability ([5]; first compound 0.6325 µM): 0.708 | relative viability ([5]; first compound 2 µM): 0.81 | relative viability ([5]; first compound 6.325 µM): 0.999 | relative viability ([5]; first compound 20 µM): 0.643 | relative viability ([6]; first compound 0.2 µM): 0.865 | relative viability ([6]; first compound 0.6325 µM): 0.37 | relative viability ([6]; first compound 6.325 µM): 0.376 | relative viability ([6]; first compound 20 µM): 0.0102 | relative viability ([7]; first compound 0.2 µM): 0.909 | relative viability ([7]; first compound 0.6325 µM): 0.931 | relative viability ([7]; first compound 2 µM): 1.01 | relative viability ([7]; first compound 6.325 µM): 0.909 | relative viability ([7]; first compound 20 µM): 0.695 | relative viability ([8]; first compound 0.2 µM): 0.631 | relative viability ([8]; first compound 0.6325 µM): 0.457 | relative viability ([8]; first compound 2 µM): 0.488 | relative viability ([8]; first compound 6.325 µM): 0.293 | relative viability ([8]; first compound 20 µM): 0.0448 | relative viability ([9]; first compound 0.2 µM): 1.13 | relative viability ([9]; first compound 0.6325 µM): 0.737 | relative viability ([9]; first compound 2 µM): 0.977 | relative viability ([9]; first compound 6.325 µM): 0.993 | relative viability ([9]; first compound 20 µM): 0.635 | relative viability ([10]; first compound 0.2 µM): 0.889 | relative viability ([10]; first compound 0.6325 µM): 0.904 | relative viability ([10]; first compound 2 µM): 0.915 | relative viability ([10]; first compound 6.325 µM): 1.05 | relative viability ([10]; first compound 20 µM): 0.361 | relative viability ([11]; first compound 0.2 µM): 1.1 | relative viability ([11]; first compound 0.6325 µM): 0.879 | relative viability ([11]; first compound 2 µM): 0.999
